In patent US6861390B2, “Derivatives of UK-2A” (priority 2001, dated 2005):

Key:
[1] = tested on: Rhizoctonia solani (RHIZSO); assay: microbe, parasite or virus in culture; format: cell-based; details: read-out: T10 RHIZSO in vitro Growth Inhibition
[2] = tested on: Erysiphe graminis (ERYSGT); assay: Powdery Mildew of Wheat, whole plant 24 Hour Protectant (T1); details: Blumeria graminis, in Triticum aestivum, read-out: T1 ERYSGT in vivo 1 Day Protectant, control of fungal infection
Description: Compound formulation was accomplished by dissolving technical materials in acetone, with serial dilutions then made in acetone to obtain desired concentrations. Final treatment volumes were obtained by adding 9 volumes 0.01% Triton X-100.
Powdery Mildew of Wheat (Erysiphe graminis—ERYSGT) (24 Hour Protectant): Wheat (cultivar Monon) was grown in a soilless peat-based potting mixture (“Metromix”) and mineral soil (50/50 mix) until the seedlings were 10-20 cm tall. These plants were then sprayed to run-off with the test compound at a rate of 100 ppm. After 24 hours the test plants were inoculated by dusting with conidia from powdery mildew infected wheat plants. The plants were then transferred to the greenhouse until disease developed on the untreated control plants.

[3] = tested on: Stagonospora nodorum (Leptosphaeria nodorum, LEPTNO); assay: microbe, parasite or virus in culture; format: cell-based; details: Parastagonospora nodorum, read-out: T7 LEPTNO in vitro Growth Inhibition
[4] = tested on: Mycosphaerella graminicola (Septoria tritici, SEPTTR); assay: microbe, parasite or virus in culture; format: cell-based; details: Zymoseptoria tritici, read-out: T11 SEPTTR in vitro Growth Inhibition
[5] = tested on: Magnaporthe grisea (Pyricularia oryzae, PYRIOR); assay: microbe, parasite or virus in culture; format: cell-based; details: read-out: T9 PYRIOR in vitro Growth Inhibition
[6] = tested on: Phytophthora infestans (PHYTIN); assay: microbe, parasite or virus in culture; format: cell-based; details: in Secale cereale, read-out: T8 PHYTIN in vitro Growth Inhibition
[7] = tested on: Leptosphaeria nodorum (LEPTNO); assay: Glume Blotch of Wheat, whole plant 24 Hour Protectant (T2); details: Parastagonospora nodorum; wheat (cultivar Yuma), sprayed at 100 ppm, inoculated after 24 hours; read-out: T2 LEPTNO in vivo 1 Day Protectant, control of fungal infection
[8] = tested on: Ustilago maydis (USTIMA); assay: microbe, parasite or virus in culture; format: cell-based; details: Mycosarcoma maydis, read-out: T12 USTIMA in vitro Growth Inhibition
[9] = tested on: Phytophthora infestans (PHYTIN); assay: whole plant or invertebrate; details: in Solanum lycopersicum, 24 h, read-out: T3 PHYTIN in vivo 1 Day Protectant, control of fungal infection
[10] = tested on: Puccinia recondita (PUCCRT); assay: Brown Rust of Wheat, whole plant 24 Hour Protectant (T5); details: wheat (cultivar Yuma), sprayed at 100 ppm, inoculated after 24 hours, read-out: T5 PUCCRT in vivo 1 Day Protectant, control of fungal infection
[11] = tested on: Septoria tritici (SEPTTR); assay: Leaf Blotch of Wheat, whole plant 24 Hour Protectant (T6); details: Zymoseptoria tritici; wheat (cultivar Monon), sprayed at 100 ppm, inoculated after 24 hours; read-out: T6 SEPTTR in vivo 1 Day Protectant, control of fungal infection

SMILES	inhibition at 25 ppm [1] [%]	pest or weed control at 100 ppm [2] [%]	inhibition at 25 ppm [3] [%]	inhibition at 25 ppm [4] [%]	inhibition at 25 ppm [5] [%]	melting point [°C]	inhibition at 25 ppm [6] [%]	pest or weed control at 100 ppm [7] [%]	inhibition at 25 ppm [8] [%]	pest or weed control at 100 ppm [9] [%]	pest or weed control at 100 ppm [10] [%]	pest or weed control at 100 ppm [11] [%]
COCOc1c(OC)ccnc1C(=O)N[C@H]1COC(=O)[C@H](Cc2ccccc2)[C@@H](OC(=O)C(C)C)[C@H](C)OC1=O [Compound 4]	< 80	25 to 74	> 80	< 80	> 80	146 to 147	< 80	75 to 100	< 80	< 25	75 to 100	–
CCOCOc1c(OC)ccnc1C(=O)N[C@H]1COC(=O)[C@H](Cc2ccccc2)[C@@H](OC(=O)C(C)C)[C@H](C)OC1=O [Compound 5]	< 80	25 to 74	> 80	< 80	< 80	60 to 62	< 80	75 to 100	< 80	< 25	75 to 100	75 to 100
COc1ccnc(C(=O)N[C@H]2COC(=O)[C@H](Cc3ccccc3)[C@@H](OC(=O)C(C)C)[C@H](C)OC2=O)c1OCOC(C)C [Compound 7]	< 80	25 to 74	> 80	< 80	< 80	124 to 127	< 80	75 to 100	> 80	< 25	75 to 100	75 to 100
COc1ccnc(C(=O)N[C@H]2COC(=O)[C@H](Cc3ccccc3)[C@@H](OC(=O)C(C)C)[C@H](C)OC2=O)c1OCOCC(C)C [Compound 9]	> 80	< 25	> 80	> 80	< 80	133 to 136	< 80	75 to 100	> 80	< 25	75 to 100	25 to 74
COc1ccnc(C(=O)N[C@H]2COC(=O)[C@H](Cc3ccccc3)[C@@H](OC(=O)C(C)C)[C@H](C)OC2=O)c1OCOCc1ccccc1 [Compound 10]	< 80	< 25	> 80	> 80	< 80	56 to 60	> 80	75 to 100	< 80	< 25	75 to 100	–
COc1ccnc(C(=O)N[C@H]2COC(=O)[C@H](Cc3ccccc3)[C@@H](OC(=O)C(C)C)[C@H](C)OC2=O)c1OCO[Si](C)(C)C [Compound 13]	> 80	< 25	> 80	< 80	< 80	50 to 52	< 80	75 to 100	< 80	< 25	75 to 100	75 to 100
COc1ccnc(C(=O)N[C@H]2COC(=O)[C@H](Cc3ccccc3)[C@@H](OC(=O)C(C)C)[C@H](C)OC2=O)c1OCOCCCl [Compound 14]	< 80	< 25	> 80	< 80	< 80	140 to 143	< 80	75 to 100	< 80	< 25	75 to 100	75 to 100
COc1ccnc(C(=O)N[C@H]2COC(=O)[C@H](Cc3ccccc3)[C@@H](OC(=O)C(C)C)[C@H](C)OC2=O)c1OCOCCC#N [Compound 15]	> 80	< 25	> 80	< 80	< 80	62 to 67	< 80	75 to 100	> 80	< 25	75 to 100	75 to 100
